Data published in patent US20110294873A1, “Gene Transfer Vectors Comprising At Least One Isolated DNA Molecule Having Insulator Or Boundary Properties And Methods To Identify The Same” (UNIVERSITÉ DE LAUSANNE, priority 2008, published 2011).
“Also recorded” adds a separate entry of the source.

B1: 12×CTCF: 12 copies of consensus CTCF binding sites with random spacers, 472 bp (nucleic acid)
DNA: GCGATGCCGCCCCCTGGTGGCCAGTAATCGCAAGGCTAAGTAATCACTGCCCCCTGGTGGCCGCCAGTCTGATACGCGTTTTACAACCGCCCCCTGGTGGCCGTGGGAGACATCTAGTGCACGAGAGTGCCCCCTGGTGGCCAAACCGTAGCCTAGGCATATTGTACTGCCCCCTGGTGGCCGGCAATATGGCTAGCGATGACTCGGCGCCCCCTGGTGGCCACTACGTTCTAGTGGCGATGCCGCCCCCTGGTGGCCAGTAATCGCAAGGCTAAGTAATCACTGCCCCCTGGTGGCCGCCAGTCTGATACGCGTTTTACAACCGCCCCCTGGTGGCCGTGGGAGACATCTAGTGCACGAGAGTGCCCCCTGGTGGCCAAACCGTAGCCTAGGCATATTGTACTGCCCCCTGGTGGCCGGCAATATGGCTAGCGATGACTCGGCGCCCCCTGGTGGCCACTACGTTCTAGTG
modifications: Consensus binding sites for CTCF (12copies)
B2: CTCF cons: 6 repeats of the consensus CTCF binding site separated by random linkers (nucleic acid)
DNA: GCGATGCCGCCCCCTGGTGGCCAGTAATCGCAAGGCTAAGTAATCACTGCCCCCTGGTGGCCGCCAGTCTGATACGCGTTTTACAACCGCCCCCTGGTGGCCGTGGGAGACATCTAGTGCACGAGAGTGCCCCCTGGTGGCCAAACCGTAGCCTAGGCATATTGTACTGCCCCCTGGTGGCCGGCAATATGGCTAGCGATGACTCGGCGCCCCCTGGTGGCCACTACGTTCTAGTG
modifications: CTCF consensus binding sites

Tests used:
Format in all cases: cell-based, human
[1] = tested on: telomeric transgenes (GFP, DsRed) in HeLa cells; experiment: Telomeric gene silencing quantitative assay (GFP/DsRed reporters, cytofluorometry); conditions: for transgene expression at telomeric positions: HeLa telomeric clones, agent in culture medium (TSA 1 μM 48 h, NaB 1 mM one week, 5azadC 3 μM 48 h, BrdU 50 μM one week)
Protocol: The minimal CMV promoter and EGFP and DsRed coding sequences (Clontech) were PCR amplified and cloned in both orientations in pBS-SK2 containing telomeric repeats, kindly provided by J. Baur (2). Puromycin resistance gene expressed from the CAG promoter was inserted upstream of DsRed, in a telomere-distal position. Four Gal4 binding site were introduced between EGFP and DsRed expression cassettes at AscI and BamHI restriction sites, yielding pGE1min-Gal and pGE2 min-Gal. Control plasmids were generated by deletion of the telomeric repeats. Plasmids encoding the Gal DNA binding domain alone (pCD-Gal-DBD), or fused to the CTF1 Proline rich (pCMV-Gal-Pro) or to the VP16 (pCMV-Gal-VP16) transcriptional activation domains were as described previously (31). Plasmids encoding Gal-CTF1 fusion mutations were previously described by Alevizopoulos et al. (1995). Plasmids used to generate stable populations expressing Gal4 derivatives were obtained by cloning Gal-fusion genes or the BFP gene in an expression vector carrying the MAR 1-68 and the SV40 promoter (15).
HeLa cells (Clontech) were cultivated at 37° C. and 5% CO2 in DMEM-F12 with 10% fetal bovine serum (Gibco). Histone deacetylation or DNA methylation studies were performed by supplementing the cell culture medium with either 1 μM of Trichostatin A (TSA, Wako) for 48 h, 1 mM of Sodium butyrate (Sigma) for one week, 3 μM of 5-aza-2′-deoxycytidine (5azadC, Sigma) for 48 h, or 50 μM of Bromo-deoxyuridine (BrdU, Applichem) for one week. Transfections were performed using the Fugene 6 transfection reagent following instructions from the manufacturer (Roche). Stable clones were obtained by transfection of linearized plasmids pGEmin-Gal, pGE2 min-Gal or their respective controls. Cells were selected with 2 μg/mL of puromycin for three weeks, and all analyses were performed at least two weeks after the end of selection, to allow for the silencing of the telomeric locus. Transient transfections were performed by co-transfection of a Gal-fusion encoding plasmid and a BFP encoding plasmid at a molar ratio of 9:1. Cytofluorometric assays of the fluorescent reporter proteins were performed 48 h later. Stable populations expressing Gal-DBD/Gal-Pro were obtained by co-transfecting the Gal-fusion expression plasmid, a BFP-encoding plasmid, and a Zeocin resistance plasmid at 45:45:10 weight ratio. Zeocin resistant cells displaying high BFP levels were sorted twice, and the amount of zeocin was increased to 1800 μg/mL with increments of 200 μg/mL, to ensure consistent and elevated levels of fusion protein expression. Fluorescence in situ hybridization (FISH) was performed as described previously (12, 15) using two colors labeling of the reporter plasmids and of the telomeric repeats.
In order to analyze both telomere-insulated and non-insulated genes co-integrated at the same telomeric locus, we generated the reporter plasmids shown in FIG. 17A. Reporter vectors consist of the green fluorescent protein (GFP) and red fluorescent protein (DsRed) coding sequences placed on either side of four DNA binding sites for the yeast GAL4 protein. Each reporter gene was placed under the control of a minimal CMV promoter, in an orientation mediating either convergent or divergent directions of transcription. An antibiotic resistance gene was placed adjacent to DsRed, while telomeric (TTAGGG)n repeats were placed next to the GFP expression cassette. […] These constructs were transfected, and antibiotic-resistant cells having stably integrated the transgenes in their genome were selected and sorted into monoclonal populations. […] Fluorescence in situ hybridization (FISH) analysis indicated a telomeric or subtelomeric transgene position for all retained clones (see FIG. 6 in the supplemental material). […]

[2] = tested on: histones H3, H4, H2A.Z on GFP and DsRed sequences in HeLa clones; experiment: Chromatin immunoprecipitation of histone modifications on telomeric transgenes; conditions: clone B09
Protocol: Antibodies against acetylated H3 (06-599), acetylated H4 (06-866) and trimethylated H3K9 (07-442) were obtained from Upstate biotechnology. Antibody against H2A.Z (ab4174) was purchased from Abcam. HeLa cells were harvested at a confluence of 90% and cross-linked with 1% formaldehyde for 4 min. After lysis of the nuclei, chromatin was sonicated to obtain fragments of ˜1000 pb and digested with BamHI. The chromatin solution was diluted to a volume of 300 μL in a buffer containing 200 mM HEPES, 2M NaCl, 20 mM EDTA, 0.1% NaDoc, 1% Triton X-100, 1 mg/mL BSA. Chromatin fragments were precleared 30 min with 10 μL rProtein A Sepharose (Amersham Biosciences) and supernatants were incubated at 4° C. overnight with 5 μL of antibody. Immunoprecipitated complexes were incubated with 10 μL rProtein A Sepharose and pellets were washed 3 times with IP buffer (20 mM HEPES, 0.2M NaCl, 2 mM EDTA, 0.1% NaDoc, 1% Triton X-100). Immunoprecipitated complexes were eluted in 100 mM Tris/HCl, 1% SDS and cross-links were reversed at 65° C. for 1 hour. Precipitated DNAs were eluted in 50 μL TE.
Quantitative PCR was performed on 7700 Sequence detector (Applied Biosystems) using SYBR Green reagent (Eurogentec). Chromatin immuno-precipitation samples and chromatin input were diluted 10 fold before analysis. […]

[3] = tested on: Fr-MuLV LTR enhancer acting on GFP gene in HeLa cells; experiment: Quantitative double-reporter (BFP/GFP) enhancer-blocking assay, transient transfection; conditions: HeLa transient, 48 hours, GFP/BFP ratio, compared to full-length cHS4
From the text: Panel A is a schematic illustration of the retroviral-mediated integration of a transgene expression cassette into a host cell genome upon viral infection. This cassette contains a transgene under the control of a retroviral LTR and is flanked by a genetic insulator element shielding a cellular gene at the site of integration from LTR-mediated up-regulation. In order to mimic events leading to gene transfer-mediated insertional activation in a plasmid-based assay system (B), plasmid constructs were designed containing a BFP gene under the control of a viral LTR enhancer-promoter and a GFP gene under the control of a minimal CMV promoter (P). Inserting a potent insulator in between the two reporter genes should prevent the expression over-activation of the GFP gene without affecting the BFP expression, as it should shield cellular gene from up-regulation at the site of integration of a viral vector without interfering with transgene expression. In addition, in order to insulate the whole construct itself either from the viral enhancer bi-directional activation in transient transfection (circular form of the plasmid) or from a neighboring cellular enhancer at the site of integration in stable transfection (integrated linearized form of the plasmid), a copy of the cHS4 insulator is inserted at the edge of the reporter gene expression cassettes
The plasmid constructs described in FIG. 26B were obtained as follows. The EGFP gene expressed from a minimal CMV promoter was PCR amplified from a pcDNA3-EGFP plasmid excluding the CMV enhancer. The EBFP gene was PCR amplified from the pEBFP-NI plasmid (Clontech). Both reporters were subcloned in a pBS2-SKP (Stratagene). The Fr-MuLV LTR was inserted upstream from the EBFP gene such that transcription from the LTR is directed towards EBFP, and a copy of the 1.2 kb cHS4 was inserted downstream from the EGFP gene. Insulator sequences were inserted between the Fr-MuLV LTR and the minimal CMV promoter driving GFP expression. The 250 bp cHS4 core was PCR amplified from the full-length cHS4 (GenBank accession number: U78775.2, amplification from position 1 to 250). A series of neutral DNA spacers of various lengths were PCR amplified from the mouse utrophin cDNA (GenBank accession number: BC062163.1, amplifications form position 355 to positions 605 and 1555).
HeLa cells were transfected using FuGENE 6 reagent (Roche Diagnostics) according to the manufacturer's recommendations. Equimolar amounts of the different plasmids were transfected in each experiment (using the pBS2-SKP backbone plasmid as carrier). Circular plasmids were used for transient transfections, while plasmids were linearized before stable transfections. To obtain stable populations, the reporter constructs were co-transfected with a puromycin resistance-encoding plasmid (pPUR, Clontech) with a molar ratio of 10:1 and cells were grown in Dulbecco's modified Eagle medium containing 10% fetal bovine serum and 0.5 μg/mL puromycin (all from GIBCO). Fluorescence analyses were acquired on the FACS Cyan (Dakocytomation) with the settings of 450 V on the SSC channel, 340 V for the GFP and 450 V for the BFP. Data analysis of the double-reporter assay consisted in normalizing the GFP fluorescence to the BFP fluorescence for each cell and averaging these values over the total cell population. FACS analyses were performed 48 hours after transfection for transient expression and after 2 to 3 weeks of selection post-transfection for stable expression. Data processing was performed using the FlowJo software.
Therefore, we designed a two-reporter gene assay whereby the potency of enhancer-blocker insulators can be quantified, and in which polar insulating activities can be distinguished from enhancer inhibition or from global gene silencing effects. […]

Molecule | transgene expression at telomeric positions [1] | enhancer-blocking (insulator) activity [3] | other results
CCCC(=O)[O-].[Na+] [NaB, Sodium butyrate] | lower unsilencing effects in some clones | – | telomeric gene expression ([1]; clone D17): little effect on telomeric gene expression
CC(/C=C/C(=O)NO)=C\[C@@H](C)C(=O)c1ccc(N(C)C)cc1 [TSA, Trichostatin A] | strongly increase transgene expression | – | H3K9Me3 on DsRed and GFP sequences (ChIP) [2]: increase; H3 and H4 acetylation on DsRed and GFP sequences (ChIP) [2]: increase of the acetylation of both DsRed and GFP
One binding site (20 bp element): single CTF/NF1 binding site from adenovirus type II origin of replication, 20 bp (DNA TTGGCAACGTGCCATAAGCA; listed as DNA, chemistry not given here) | – | responsible for most of the effect | enhancer-blocking (insulator) activity ([3]; listed as single binding site of 20 bp): approximately half of the insulating effect seen with the full-length cHS4
Nc1ncn([C@H]2C[C@H](O)[C@@H](CO)O2)c(=O)n1 [5azadC, 5-aza-2′-deoxycytidine] | little effect on transgene expression | – | –
O=c1[nH]c(=O)n([C@H]2C[C@H](O)[C@@H](CO)O2)cc1Br [BrdU, Bromo-deoxyuridine] | increase in expression of the reporter genes, but to a lesser extent than that noted with TSA | – | –
CTF1: native transcription factor of the CTF/NF1 family, transiently expressed | – | – | reporter gene activation upon transient CTF1 expression ([1]; reporter with seven CTF/NF1 binding sites, internal chromosomal location): commensurate activation occurred for both reporter genes; boundary effect upon transient CTF1 expression ([1]; reporter with seven CTF/NF1 binding sites, telomeric transgenes): boundary effect was observed
B1 | – | as potent as the complete 1.2 kb cHS4 element; also recorded: comparable to the one of the full length cHS4; also recorded: fully reproduced the insulation effect; also recorded: able to reconstitute the enhancer blocking activity mediated by the full-length 1.2 kb cHS4 | –
B2 | – | already showed significant activity | enhancer-blocking (insulator) activity ([3]; listed as Consensus binding sites for CTCF): able to show the same activity, with no significant improvement
